Source: patent US11299485B2, “Thiophene derivative and use thereof” (FUJIMOTO CO., LTD., priority 2018, dated 2022)

Tests used:
Format in all cases: cell-based
[1] = tested on: human peripheral blood mononuclear cells (PBMC); assay: Cytotoxicity test using human peripheral blood mononuclear cells (PBMC); details: compound 10 μg/mL, LPS, 24 hr, WST-1 or WST-8
Procedure: Example 56: Cytotoxicity Test Using Human Peripheral Blood Mononuclear Cells (PBMC)
Peripheral blood of a healthy adult was collected in a Venoject II vacuum blood collection tube (Terumo, containing EDTA/2Na), and then diluted two-fold with an equal volume of OTSUKA NORMAL SALINE (Otsuka Pharmaceutical Co., Ltd.). The diluted blood was mixed with Lymphoprep (AXIS-SHIELD) in half the volume of the diluted blood, dispensed into a 15 mL conical tube, and centrifuged at room temperature for 20 min (2,100 rpm). The mononuclear cells accumulated at the interface between Lymphoprep and plasma was transferred to a 50 mL conical tube, diluted with OTSUKA NORMAL SALINE, and the mononuclear cells suspension was centrifuged at room temperature for 10 min (1,150 rpm) and then the supernatant was removed. The mononuclear cells fraction obtained as a precipitate was suspended in an appropriate amount of medium A, and diluted as appropriate with 0.4% trypan blue solution (Sigma-Aldrich Co. LLC.). The number of viable cells was counted with a hemocytometer (ERMA INC.). It was diluted with medium A such that the value obtained was 5×10^5 cells/mL. On the other hand, 37.5 μL of medium A, 2.5 μL of 0.4 mg/mL test compound solution (DMSO solution 10-fold diluted with medium A), and 10 μL of 10 μg/mL lipopolysaccharide (Sigma-Aldrich Co. LLC.) solution (diluted with medium A) were each added in advance to the same well of a Falcon 96-well flat bottom plate (Corning Incorporated), and the above-mentioned cell suspension was dispensed at 50 μL/well (final concentration of test compound 10 μg/mL). 2.5 μL of DMSO diluted 10-fold with medium A was added to the control well instead of the compound solution. After culturing at 37° C. in a 5% CO2 stream for 24 hr, the cell survival rate was measured using WST-1 (DOJINDO LABORATORIES) or WST-8 kit (KISHIDA CHEMICAL Co., Ltd.) and according to each instruction manual attached thereto.

REC-1 cells = assay: Human mantle cell lymphoma cell line REC-1 proliferation suppression test; details: Rec1, 72 h, compound 10 μM, 3 days, WST-8, read-out: cell survival rate (% of control) REC-1
Procedure, shortened: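 Cells were plated at 1.3×10^5 cells/mL, and the next day test compound was added at a final 10 μM, with DMSO-only medium as control. After 3 days at 37° C under 5% CO2, proliferation was measured with WST-8.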

Pfeiffer cells = assay: Human diffuse large B-cell lymphoma cell line Pfeiffer proliferation suppression test; details: 144 h, compound 10 μM, 3 days + re-plating with compound 3 days, WST-8, read-out: cell survival rate (% of control) Pfeiffer
Procedure, shortened: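 Pfeiffer cells were seeded at 1.3×10^5 cells/mL and dosed the next day with compound at 10 μM final (DMSO control), then grown 3 days at 37 °C, 5% CO2. An aliquot was then passaged into a fresh plate with compound re-added at 10 μM final for 3 more days. Proliferation was read by WST-8.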

| SMILES | cell survival rate (% of control) PBMC [1] | viability at 10 µM (REC-1 cells) [%] | viability at 10 µM (Pfeiffer cells) [%] |
| --- | --- | --- | --- |
| O=C1CCC(n2cc(-c3cscc3OCc3ccc(Cl)cc3)nn2)C(=O)N1 (stereo not drawn) [compound 43, 3-{4-[4-(4-chlorobenzyloxy)thiophen-3-yl]-1H-1,2,3-triazol-1-yl}piperidine-2,6-dione] | 98 % of control | 23 | 89 |
| CC(Oc1cscc1-c1cn(C2CCC(=O)NC2=O)nn1)c1ccccc1 (stereo not drawn) [compound 44, 3-{4-[4-(1-phenylethoxy)thiophen-3-yl]-1H-1,2,3-triazol-1-yl}piperidine-2,6-dione] | 105 % of control | 30 | 94 |
| Cl.O=C1CCC(n2cc(-c3cscc3OCc3ccc(CCN4CCOCC4)cc3)nn2)C(=O)N1 (stereo not drawn) [compound 45, 3-(4-{4-[4-(2-morpholinoethyl)benzyloxy]thiophen-3-yl}-1H-1,2,3-triazol-1-yl)piperidine-2,6-dione hydrochloride] | 110 % of control | 26 | 78 |
| CN(C)Cc1ccc(COc2cscc2-c2cn(C3CCC(=O)NC3=O)nn2)cc1.Cl (stereo not drawn) [compound 46, 3-[4-(4-{4-[(dimethylamino)methyl]benzyloxy}thiophen-3-yl)-1H-1,2,3-triazol-1-yl]piperidine-2,6-dione hydrochloride] | 110 % of control | 23 | 84 |
| O=C1CCC(n2cc(-c3cscc3OCc3cc4ccccc4s3)nn2)C(=O)N1 (stereo not drawn) [compound 47, 3-{4-[4-(benzo[b]thiophen-2-ylmethoxy)thiophen-3-yl]-1H-1,2,3-triazol-1-yl}piperidine-2,6-dione] | 106 % of control | 33 | 99 |
| O=C1CCC(n2nnc(-c3ccsc3)c2Br)C(=O)N1 (stereo not drawn) [compound 48, 3-[5-bromo-4-(thiophen-3-yl)-1H-1,2,3-triazol-1-yl]piperidine-2,6-dione] | 138 % of control | 98 | 98 |
| COc1cscc1-c1nnn(C2CCC(=O)NC2=O)c1I (stereo not drawn) [compound 49, 3-[5-iodo-4-(4-methoxythiophen-3-yl)-1H-1,2,3-triazol-1-yl]piperidine-2,6-dione] | 102 % of control | 24 | 75 |
